Here are results for 14 compounds from ChEMBL document CHEMBL5252567, “Tetrazole-based inhibitors of the bacterial enzyme N-succinyl-l,l-2,6-diaminopimelic acid desuccinylase as potential antibiotics” (Bioorg Med Chem Lett, 2023).

For assay [1], the target named is T1, Succinyl-diaminopimelate desuccinylase (Haemophilus influenzae (strain ATCC 51907 / DSM 11121 / KW20 / Rd)) (UniProt P44514).
T1 sequence (whole entry): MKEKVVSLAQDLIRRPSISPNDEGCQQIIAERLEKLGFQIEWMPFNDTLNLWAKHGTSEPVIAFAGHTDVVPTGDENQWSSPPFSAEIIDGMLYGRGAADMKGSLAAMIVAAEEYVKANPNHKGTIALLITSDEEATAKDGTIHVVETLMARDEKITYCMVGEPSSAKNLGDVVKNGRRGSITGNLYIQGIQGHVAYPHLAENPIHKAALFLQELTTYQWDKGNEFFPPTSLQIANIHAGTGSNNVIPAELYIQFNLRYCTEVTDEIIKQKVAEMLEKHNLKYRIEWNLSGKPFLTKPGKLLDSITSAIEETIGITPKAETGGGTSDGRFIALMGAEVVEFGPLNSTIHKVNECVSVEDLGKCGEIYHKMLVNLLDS
Nature of the assay: Inhibition of Haemophilus influenzae DapE at 100 uM relative to control.

Assay [2] concerns the target T2, Succinyl-diaminopimelate desuccinylase (Haemophilus influenzae (strain ATCC 51907 / DSM 11121 / KW20 / Rd), UniProt P44514).
T2 sequence (P44514 whole entry): T1 sequence (whole entry)
Nature of the assay: Inhibition of Haemophilus influenzae DapE.

Assay [3] addresses T1, Succinyl-diaminopimelate desuccinylase (Haemophilus influenzae (strain ATCC 51907 / DSM 11121 / KW20 / Rd)). Nature of the assay: Inhibition of Haemophilus influenzae DapE at 75 uM relative to control.

By inhibition is commonly meant the relative decrease from the control value, in per cent. A lower inhibition goes with a response near the control. For `CC(Sc1nnnn1-c1ccccc1)C(=O)Nc1ccccn1` (centres undefined), in assay [1], the inhibition turned out to be 23.2%. For orientation: IC50 means the concentration at which inhibition is half-maximal. In assay [2], `O=C(CSc1nnnn1-c1ccccc1)Nc1nccs1` showed an IC50 of 50.2 µM. Also, the inhibition in assay [1] came to 71.5%.

With `O=C(CSc1nnnn1-c1ccccc1)Nc1ccc(Cl)cn1`, the inhibition in assay [3] came to 39.5%.

In assay [1], `O=C(CSc1nnnn1-c1ccccc1)Nc1ccon1` came in with an inhibition of 49.2%.

In assay [1], `CC(Sc1nnnn1-c1ccccc1)C(=O)Nc1ccon1` (centres undefined) gave an inhibition of 17.2%. Still for that read-out and setting: the figure for `CC(Sc1nnnn1-c1ccccc1)C(=O)Nc1nccs1` (centres undefined) is 35.6%; for `O=C(CSc1nnnn1-c1ccccc1)Nc1cnccn1` it is 10.2%. Still for that read-out and setting: the figure for `CC(Sc1nnnn1-c1ccccc1)C(=O)NCc1ccccc1` (centres undefined) is 36.3%. On to `O=C(CSc1nnnn1-c1ccccc1)Nc1ccccc1`, for which the midpoint of inhibition in assay [2], the IC50, lay at 54.3 µM. This compound also gave an inhibition in assay [1] of 83.8%.

Compound `O=C(CSc1nnnn1-c1ccccc1)Nc1ccccn1` registered an inhibition in assay [1] of 26.5%. In assay [2], `CC(Sc1nnnn1-c1ccccc1)C(=O)Nc1ccc(Cl)cn1` (centres undefined) yielded an IC50 of 57.3 µM. The inhibition in assay [1] turned out to be 71%. In assay [2], `O=C(CSc1nnnn1-c1ccccc1)NCc1ccccc1` registered an IC50 of 103 µM. The inhibition in assay [1] worked out at 61.5%.

Turning to `CC(Sc1nnnn1-c1ccccc1)C(=O)Nc1ccccc1` (centres undefined), half-maximal inhibition in assay [2] (IC50) was put at 134 µM. In addition, the inhibition in assay [1] is 55.4%. As for `CC(Sc1nnnn1-c1ccccc1)C(=O)Nc1cnccn1` (centres undefined), in assay [1], the inhibition is 9.7%.
